This is an account of results in patent publication US8703726B2, “Methods for treating prostate conditions” (PTC Therapeutics, Inc., priority 2009, dated 2014).

One data set relates to HT1080 cells. As to the kind of experiment: Cell cycle analysis by propidium iodide flow cytometry in HT1080 cells (% cells in S-phase, Table 24). It counts as cell-based, human. The settings on record: same tumor cells. On the procedure: Experimental Design. […] After treatment, cells were trypsinized, and stained with propidium iodide (PI) dye to measure DNA content of individual cells by flow cytometry. Output comprised histograms showing relative DNA content in 10,000 cells.
While compounds which cause greater than 20% of the cells to accumulate in S-phase at 100 nM are considered active, a larger percentage of cells may be accumulated in S-phase at lower doses depending on the Compound, as shown in FIG. 12 for example.
In general terms: Flow cytometry measures light scatter and fluorescence of single cells or particles in a stream.

A further data set deals with PC3 xenografts. As to the kind of experiment: PC3 tumors in mice: Compound #10 as monotherapy and with docetaxel.
Data set [1] deals with LNCaP prostate tumor cells. The settings on record: mouse, in vivo, iv, 3 mg/kg.
Procedure: (§1) Male C.B.17 SCID mice (Charles River Laboratory; Wilmington, Mass.) were inoculated with LNCaP prostate tumor cells (6.1×10^6 cells/mouse) obtained from the ATCC (Manassas, Va.). […] Mice were inoculated using a 25 gauge needle in the right flank in a volume of 0.2 mL. A total of 95 mice were injected, of which 32 were used.
(§2) Treatment started on Day 0 and continued through Day 31.
(§3) Body Weight: One day prior to the initiation of the study, the mice were weighed. Thereafter, mice were weighed every week and on the day that the study was terminated.
(§4) Tumor Size: Tumors were measured every 3 to 4 days using digital calipers. To calculate tumor volume, the following calculation was used, where L equals the longest dimension measurement and W equals the shortest dimension measurement:
(§5) Data Analysis: Tumor growth was calculated as: [1-[(final tumor size minus initial tumor size in test compound treated-mice)/(final tumor size minus initial tumor size in vehicle-treated mice)]×100%
(§6) Percent change in body weight was calculated as: [(Body weight on Day of study)−(initial body weight)/(initial body weight)]×100%
(§7) Differences in tumor size, tumor growth, and body weight change among groups were analyzed by ANOVA (analysis of variance) (SigmaStat 3.0).
Data set [2] deals with LNCaP prostate tumor cells. As to the kind of experiment: LNCaP tumors in SCID mice: Compound #10 as monotherapy and with docetaxel.
Procedure: as §1, §2, §3, §4, §5, §6, §7
Data set [3] has as its system LNCaP prostate tumor cells. The following applies: mouse, in vivo, po, 25 mg/kg.
Procedure: as §1
(§8) Twenty-seven days after inoculation, the mice were randomized into 4 groups as outlined in Table 33. […] Treatment started on Day 0 and continued through Day 30.
as §3, §4
(§9) Tumor growth was calculated as: [1-[(final tumor size minus initial tumor size in test compound treated-mice)/(final tumor size minus initial tumor size in vehicle-treated mice)]×100%
as §6, §7
For data set [4], the system named is LNCaP prostate tumor cells. The experiment in a line: LNCaP tumors in SCID mice: Compound #10 as monotherapy and with bicalutamide.
Procedure: as §1, §8, §3, §4, §9, §6, §7
The mark [5] stands for this setting: Docetaxel, 3 mg/kg IV on Days 1 and 8, Vehicle, QD, daily.
The mark [6] stands for this setting: Bicalutamide, 25 mg/kg QD on Days 0, 1, 2, 3, 6, 7, 8, 9, and 10, L21 vehicle, QD, oral.

Read-outs that look alike come from different tables or passages of the source.

Procedure for PC3 xenografts: PC3 cells (CRL 1435) obtained from the American Type Tissue Collection (ATCC, Manassas, Va.) were thawed and seeded at 0.5×10^7 cells per 175 mm^2 flask. Cells were fed and expanded on a regular schedule to reach a given density prior to passage. Flasks were between 80-90% confluent, but not >95% confluent on the day of harvest. Harvest occurred ˜48 hr after the previous split to allow for full recovery.
To harvest the cells, medium was removed from the flasks and the cell layers rinsed with 37° C. PBS. A volume of 3 mL trypsin-EDTA was added per 175 cm^2 surface area and incubated at room temperature for 5 minutes until the cells detached. The cells were collected in 7-10 mL ice cold complete medium and were transferred to a conical tube. The tube was placed immediately on ice. After all flasks were harvested, the cells were pelleted by centrifugation at 4° C. Cells were re-suspended at 2.5×10^7 cells/mL in Hank's Salt Solution and 10 mM HEPES. Cells were stored on ice until the time of tumor inoculation (which was less than 1 h later).
Tumor Cell Injection: Tumor cells were kept on ice at all times. […] A 25-gauge needle was used for tumor cell injections. Tumor cells were injected in a volume of 0.2 mL subcutaneously. A total of 100 mice were inoculated, of which 69 were used in the study.
Seventeen days after inoculation, the mice were randomized into six groups. At this time, the majority of the tumors had reached a volume of 170-415 mm^3. Randomization of the mice was performed by using the formula RAND ( )*5000 from Microsoft Excel. […] Animals with tumors that were not within the 170-415 mm^3 range were excluded from the study.
Furthermore, all animals in a group were taken off study when the mean tumor size in that group reached 1000 mm^3.
as §4
Differences in mean tumor size, tumor growth, and body weight change were compared across groups using analysis of variance (ANOVA) (SigmaStat 3.0).
To calculate the time to progression, defined as the number of days for a tumor to reach 1000 mm^3, tumor growth vs time was individually plotted for each animal. The time to reach 1000 mm^3 estimated for each animal. […] The median and mean time for each treatment group to reach 1000 mm^3 was then calculated and groups were compared using ANOVA (SigmaStat 3.0).
as §3

Turning to `NC(Cn1ccc(=O)c(O)c1)C(=O)O` (centres unmarked) [mimosine], the “effect of comparator on cell cycle (and VEGF production) (data not shown)” value in the data set on HT1080 cells was “does not delay or prolong the cell cycle or reduce VEGF production”.

As to `CC(=O)O[C@@]12CO[C@@H]1C[C@H](O)[C@@]1(C)C(=O)[C@H](O)C3=C(C)[C@@H](OC(=O)[C@H](O)[C@@H](NC(=O)OC(C)(C)C)c4ccccc4)C[C@@](O)([C@@H](OC(=O)c4ccccc4)[C@H]21)C3(C)C` [docetaxel], in the data set on PC3 xenografts (3 mg/kg IV Day 1, 8 and 10 mg/kg Day 29, vehicle 22), the “Average Time on Therapy” value was 23 days. In addition, the “Median Time to Reach 1000 mm^3 (time to progression)” value in the data set with PC3 xenografts (3 mg/kg IV Day 1, 8 and 10 mg/kg Day 29, vehicle 23) was determined as 22 days. The “body weight change” value with PC3 xenografts (PC3 tumor-bearing mice, Day 35 / Day 42) is “significantly more weight loss”. The “median time to progression (tumor ≧1000 mm^3)” value with PC3 xenografts (docetaxel IV 3 mg/kg on Day 1 and at 8 and 10 mg/kg on Day 29) was 22 days. Moreover, in the data set with PC3 xenografts (docetaxel IV, up to Day 35), the “tumors vs vehicle-treated mice” value is “not significantly different from the tumors in vehicle-treated mice”. Also, in data set [1], the “Day of Maximal Loss (body weight)” value was “(Day 13)” and the “Maximal Body Weight Loss From Initial Weight” value was −15%. In addition, the “mean±SD tumor size” value in data set [2] (Day 31, Compound #10 10 mg/kg PO QD, docetaxel 3 mg/kg Days 1 and 8) stood at 1017±458 mm3. For the same molecule, in data set [2] (Day 31, docetaxel 3 mg/kg Days 1 and 8), the “inhibition of tumor size or of the increase in tumor size versus vehicle” value was “No statistically significant differences”. In data set [2] (setting [5]), the “Percent Inhibition Relative to Vehicle: Tumor Growth From Day 0 to 31” value is given as 17% and the “Percent Inhibition Relative to Vehicle: Tumor Volume at Day 31” value is listed as 12%.

Take `CC(O)(CS(=O)(=O)c1ccc(F)cc1)C(=O)Nc1ccc(C#N)c(C(F)(F)F)c1` (centres unmarked) [bicalutamide]: in data set [3], the “Day of Maximal Loss (body weight)” value worked out at 20 days and the “Maximal Body Weight Loss From Initial Weight” value is −5.3%. Further, in data set [4] (setting [6]), the “Percent Inhibition Relative to Vehicle: Tumor Growth From Day 0 to 31” value is given as 9.3%^ and the “Percent Inhibition Relative to Vehicle: Tumor Volume at Day 31” value is listed as 7.2%^. For the same molecule, in data set [4] (Day 30, Compound #10 10 mg/kg PO QD, bicalutamide 25 mg/kg QD), the “mean±SD tumor size” value worked out at 1059±321 mm3.
